According to patent US9453005B2, “Inhibition of influenza M2 proton channel” (The Trustees Of The University Of Pennsylvania, priority 2008, dated 2016):

Target: AM2(V27A) (Influenza A virus, UniProt P0DOF5, V27A)
Assay type: biochemical

Row | Structure (SMILES) | % Activity
1 | NC1CCC2(CCCCC2)CC1 [Compound 8, Spiro[5.5]undec-3-ylamine] | 8 (47.34%) 9 (68.39%)
2 | CNC1CCC2(CCCCC2)CC1 [Compound 9, Methyl-spiro[5.5]undec-3-yl-amine] | 8 (47.34%) 9 (68.39%)
3 | Cl.NC12CC3CC(CC(C3)C1)C2 [amantadine, reference compound] | 99.1%
